Assay results from patent US8993752B2, “Neprilysin inhibitors” (Theravance Biopharma R&D IP, LLC, priority 2011, dated 2015).

Molecular target: T1, human NEP (Homo sapiens, UniProt P08473)
T1 construct: purchased R&D Systems, Minneapolis, Minn; 1182-ZN
Experiment: In vitro enzyme inhibition assay at human NEP (fluorogenic peptide substrate)
Assay type: biochemical
Conditions: recombinant human NEP; substrate Mca-D-Arg-Arg-Leu-Dap-(Dnp)-OH 10 μM; 37° C.; values given as ranges; read-out: pKi values at human NEP (converted)
Experimental: The inhibitory activities of compounds at human and rat neprilysin (EC 3.4.24.11; NEP) and human angiotensin converting enzyme (ACE) were determined using in vitro assays as described below.
Recombinant human NEP and recombinant human ACE were obtained commercially (R&D Systems, Minneapolis, Minn., catalog numbers 1182-ZN and 929-ZN, respectively). The fluorogenic peptide substrate Mca-D-Arg-Arg-Leu-Dap-(Dnp)-OH (Medeiros et al. (1997) Braz. J. Med. Biol. Res. 30:1157-62; Anaspec, San Jose, Calif.) and Abz-Phe-Arg-Lys(Dnp)-Pro-OH (Araujo et al. (2000) Biochemistry 39:8519-8525; Bachem, Torrance, Calif.) were used in the NEP and ACE assays respectively.
The assays were performed in 384-well white opaque plates at 37° C. using the fluorogenic peptide substrates at a concentration of 10 μM in Assay Buffer (NEP: 50 mM HEPES, pH 7.5, 100 mM NaCl, 0.01% polyethylene glycol sorbitan monolaurate (Tween-20), 10 μM ZnSO4; ACE: 50 mM HEPES, pH 7.5, 100 mM NaCl, 0.01% Tween-20, 1 μM ZnSO4).
Test compounds were assayed over the range of concentrations from 10 μM to 20 pM. Test compounds were added to the enzymes and incubated for 30 minute at 37° C. prior to initiating the reaction by the addition of substrate. Reactions were terminated after 20 minutes of incubation at 37° C. by the addition of glacial acetic acid to a final concentration of 3.6% (v/v).
Plates were read on a fluorometer with excitation and emission wavelengths set to 320 nm and 405 nm, respectively Inhibition constants were obtained by nonlinear regression of the data using the equation (GraphPad Software, Inc., San Diego, Calif.): v=v0/[1+(I/K′)] where v is the reaction rate, v0 is the uninhibited reaction rate, I is the inhibitor concentration and K′ is the apparent inhibition constant.
Compounds of the invention were tested in this assay and found to have pKi values at human NEP as follows.

T1 sequence (P08473 whole entry): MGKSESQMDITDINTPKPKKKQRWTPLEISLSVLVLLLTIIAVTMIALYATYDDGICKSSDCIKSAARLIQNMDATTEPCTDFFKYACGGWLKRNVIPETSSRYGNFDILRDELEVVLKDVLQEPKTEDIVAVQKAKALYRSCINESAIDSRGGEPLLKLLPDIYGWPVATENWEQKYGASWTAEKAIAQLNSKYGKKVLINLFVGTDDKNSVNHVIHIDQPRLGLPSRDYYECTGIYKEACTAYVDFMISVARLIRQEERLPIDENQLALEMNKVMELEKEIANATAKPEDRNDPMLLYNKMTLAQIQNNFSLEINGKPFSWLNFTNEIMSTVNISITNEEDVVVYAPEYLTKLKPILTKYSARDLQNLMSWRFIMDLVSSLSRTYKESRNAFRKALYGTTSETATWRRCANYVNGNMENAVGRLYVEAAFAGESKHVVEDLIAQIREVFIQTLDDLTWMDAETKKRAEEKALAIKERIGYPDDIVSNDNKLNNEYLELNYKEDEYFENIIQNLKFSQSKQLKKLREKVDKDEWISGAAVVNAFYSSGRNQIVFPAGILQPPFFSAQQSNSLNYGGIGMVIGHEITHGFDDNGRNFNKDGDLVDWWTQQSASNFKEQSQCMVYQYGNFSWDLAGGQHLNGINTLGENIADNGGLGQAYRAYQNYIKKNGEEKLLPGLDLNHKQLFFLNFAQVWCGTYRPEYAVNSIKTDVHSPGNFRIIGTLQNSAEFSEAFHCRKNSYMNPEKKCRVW

SMILES | Ki
COc1ccc(Cn2nc(C(=O)N[C@H](Cc3ccccc3)[C@@H](O)C(=O)O)cc2C2CC2)c(F)c1F [Example 8-21, (2R,3R)-3-{[5-Cyclopropyl-1-(2,3-difluoro-4-methoxy-benzyl)-1H-pyrazole-3-carbonyl]-amino}-2-hydroxy-4-phenyl-butyric acid] | 1.26 to 10 nM
CC(C)CN(C)C(=O)c1cc(C(=O)N[C@H](Cc2ccccc2C(F)(F)F)[C@@H](O)C(=O)O)n[nH]1 [Example 6-3, (2R,3R)-2-Hydroxy-3-{[5-(isobutyl-methyl-carbamoyl)-1H-pyrazole-3-carbonyl]-amino}-4-(2-trifluoromethyl-phenyl)-butyric acid] | 12.6 to 100 nM
CCn1nc(C(=O)N[C@H](Cc2ccccc2)[C@@H](O)C(=O)O)cc1C(=O)O [Example 8-12, 5-((1R,2R)-1-Benzyl-2-carboxy-2-hydroxy-ethylcarbamoyl)-2-ethyl-2H-pyrazole-3-carboxylic acid] | 12.6 to 100 nM
COc1c(F)cc(Cn2nc(C(=O)N[C@H](Cc3ccccc3Cl)[C@@H](O)C(=O)O)cc2C(=O)O)cc1F [Example 2-34, 5-[(1R,2R)-2-Carboxy-1-(2-chloro-benzyl)-2-hydroxy-ethylcarbamoyl]-2-(3,5-difluoro-4-methoxy-benzyl)-2H-pyrazole-3-carboxylic acid] | ≤ 1 nM
O=C(N[C@H](Cc1ccccc1Cl)[C@@H](O)C(=O)O)c1cc(NC(=O)c2ccccc2Cl)[nH]n1 [Example 2-57, (2R,3R)-3-{[5-(2-Chloro-benzoylamino)-1H-pyrazole-3-carbonyl]-amino}-4-(2-chloro-phenyl)-2-hydroxy-butyric acid] | 12.6 to 100 nM
O=C(O)C[C@@H](Cc1ccccc1Cl)NC(=O)c1cc(C(=O)O)[nH]n1 [Example 11-7, 5-[(R)-1-Carboxymethyl-2-(2-chloro-phenyl)-ethylcarbamoyl]-2H-pyrazole-3-carboxylic acid] | 12.6 to 100 nM
O=C(N[C@H](Cc1ccccc1Cl)[C@@H](O)C(=O)O)c1cc(C(=O)O)n(Cc2ccc(Cl)c(SC(F)(F)F)c2)n1 [Example 2-9, 5-[(1R,2R)-2-Carboxy-1-(2-chloro-benzyl)-2-hydroxy-ethylcarbamoyl]-2-(4-chloro-3-trifluoromethylsulfanyl-benzyl)-2H-pyrazole-3-carboxylic acid] | 12.6 to 100 nM
COc1cccc(Cn2nc(C(=O)N[C@H](Cc3ccccc3)[C@@H](O)C(=O)O)cc2C(=O)O)c1 [Example 8-5, 5-((1R,2R)-1-Benzyl-2-carboxy-2-hydroxy-ethylcarbamoyl)-2-(3-methoxy-benzyl)-2H-pyrazole-3-carboxylic acid] | 1.26 to 10 nM
O=C(N[C@H](Cc1ccccc1C(F)(F)F)[C@@H](O)C(=O)O)c1cc(C(=O)O)n(Cc2ccc(F)cc2)n1 [Example 6-1, 5-[(1R,2R)-2-Carboxy-2-hydroxy-1-(2-trifluoromethyl-benzyl)-ethylcarbamoyl]-2-(4-fluoro-benzyl)-2H-pyrazole-3-carboxylic acid] | 1.26 to 10 nM
O=C(N[C@H](Cc1ccccc1)[C@@H](O)C(=O)O)c1cc(C(=O)O)n(Cc2ccc(F)cc2)n1 [Example 8-9, 5-((1R,2R)-1-Benzyl-2-carboxy-2-hydroxy-ethylcarbamoyl)-2-(4-fluoro-benzyl)-2H-pyrazole-3-carboxylic acid] | 1.26 to 10 nM
O=C(O)C[C@@H](Cc1ccccc1C(F)(F)F)NC(=O)c1cc(C(=O)O)[nH]n1 [Example 12, 5-[(R)-2-Carboxy-1-(2-trifluoromethylbenzyl)-ethylcarbamoyl]-2H-pyrazole-3-carboxylic Acid] | 12.6 to 100 nM
COc1cccc(Cn2nc(C(=O)N[C@@H](CC(=O)O)Cc3ccccc3Cl)cc2C(=O)O)c1 [Example 11-1, 5-[(R)-2-Carboxy-1-(2-chloro-benzyl)-ethylcarbamoyl]-2-(3-methoxy-benzyl)-2H-pyrazole-3-carboxylic acid] | 12.6 to 100 nM
Cc1cccc(C)c1Cn1nc(C(=O)N[C@H](Cc2ccccc2Cl)[C@@H](O)C(=O)O)cc1C(=O)O [Example 2-43, 5-[(1R,2R)-2-Carboxy-1-(2-chloro-benzyl)-2-hydroxy-ethylcarbamoyl]-2-(2,6-dimethyl-benzyl)-2H-pyrazole-3-carboxylic acid] | 1.26 to 10 nM
CC(C)CN(C)C(=O)c1cc(C(=O)N[C@H](Cc2ccccc2Cl)[C@@H](O)C(=O)O)n[nH]1 [Example 2-56, (2R,3R)-4-(2-Chloro-phenyl)-2-hydroxy-3-{[5-(isobutyl-methyl-carbamoyl)-1H-pyrazole-3-carbonyl]-amino}-butyric acid] | 12.6 to 100 nM
CC(=O)c1cc(C(=O)N[C@H](Cc2ccccc2Cl)[C@@H](O)C(=O)O)[nH]n1 [Example 3-5, (2R,3R)-3-[(5-Acetyl-2H-pyrazole-3-carbonyl)-amino]-4-(2-chloro-phenyl)-2-hydroxy-butyric acid] | 12.6 to 100 nM
Cc1ccccc1C[C@H](CC(=O)O)NC(=O)c1cc(C(=O)O)[nH]n1 [Example 13, 5-((R)-1-Carboxymethyl-2-o-tolyl-ethylcarbamoyl)-2H-pyrazole-3-carboxylic Acid] | 12.6 to 100 nM
O=C(N[C@H](Cc1ccccc1Cl)[C@@H](O)C(=O)O)c1cc(C(=O)O)n(Cc2c(F)cccc2F)n1 [Example 2-44, 5-[(1R,2R)-2-Carboxy-1-(2-chloro-benzyl)-2-hydroxy-ethylcarbamoyl]-2-(2,6-difluoro-benzyl)-2H-pyrazole-3-carboxylic acid] | 1.26 to 10 nM
O=C(N[C@H](Cc1ccccc1)[C@@H](O)C(=O)O)c1cc(C(=O)O)n(Cc2ccccc2)n1 [Example 8-8, 2-Benzyl-5-((1R,2R)-1-benzyl-2-carboxy-2-hydroxy-ethylcarbamoyl)-2H-pyrazole-3-carboxylic acid] | 1.26 to 10 nM
O=C(N[C@H](Cc1ccccc1Cl)[C@@H](O)C(=O)O)c1cc(-c2ccccc2Cl)[nH]n1 [Example 2-48, (2R,3R)-4-(2-Chloro-phenyl)-3-{[5-(2-chloro-phenyl)-1H-pyrazole-3-carbonyl]-amino}-2-hydroxy-butyric acid] | 1.26 to 10 nM
O=C(N[C@H](Cc1ccccc1Cl)[C@@H](O)C(=O)O)c1cc(C(=O)O)n(Cc2c(F)cc(F)cc2F)n1 [Example 2-42, 5-[(1R,2R)-2-Carboxy-1-(2-chloro-benzyl)-2-hydroxy-ethylcarbamoyl]-2-(2,4,6-trifluoro-benzyl)-2H-pyrazole-3-carboxylic acid] | 1.26 to 10 nM
O=C(N[C@H](Cc1ccccc1)[C@@H](O)C(=O)O)c1cc(C(=O)O)n(CCO)n1 [Example 8-14, 5-((1R,2R)-1-Benzyl-2-carboxy-2-hydroxy-ethylcarbamoyl)-2-(2-hydroxy-ethyl)-2H-pyrazole-3-carboxylic acid] | 12.6 to 100 nM
O=C(N[C@H](Cc1ccccc1Cl)[C@@H](O)C(=O)O)c1cc(-c2cc(Cl)ccc2Cl)n[nH]1 [Example 3-7, (2R,3R)-4-(2-Chloro-phenyl)-3-{[5-(2,5-dichloro-phenyl)-2H-pyrazole-3-carbonyl]-amino}-2-hydroxy-butyric acid] | 1.26 to 10 nM
COc1ccc(Cn2ccc(C(=O)N[C@H](Cc3ccccc3Cl)[C@@H](O)C(=O)O)n2)c(F)c1F [Example 2-65, (2R,3R)-4-(2-Chloro-phenyl)-3-{[1-(2,3-difluoro-4-methoxy-benzyl)-1H-pyrazole-3-carbonyl]-amino}-2-hydroxy-butyric acid] | 1.26 to 10 nM
